Results: article PMC9569420 (Communications Biology, 2022)

Key:
PKCepsilon = molecular target: T1, PKCepsilon (Homo sapiens, UniProt Q02156); experiment: HotSpot kinase assay; assay type: biochemical; conditions: read-out: % Enzyme Activity (relative to DMSO controls)
T1 construct: purchased Reaction Biology Corporation

FLT3 = molecular target: T2, FLT3 (Homo sapiens, UniProt P36888); experiment: HotSpot kinase assay; assay type: biochemical; conditions: read-out: % Enzyme Activity (relative to DMSO controls)
T2 construct: purchased Reaction Biology Corporation

STK38/NDR1 = molecular target: T3, STK38/NDR1 (Homo sapiens, UniProt Q15208); experiment: HotSpot kinase assay; assay type: biochemical; conditions: read-out: % Enzyme Activity (relative to DMSO controls)
T3 construct: purchased Reaction Biology Corporation

SBK1 = molecular target: T4, SBK1 (Homo sapiens, UniProt Q52WX2); experiment: HotSpot kinase assay; assay type: biochemical; conditions: read-out: % Enzyme Activity (relative to DMSO controls)
T4 construct: purchased Reaction Biology Corporation

ALK5/TGFBR1 = molecular target: T5, ALK5/TGFBR1 (Homo sapiens, UniProt P36897); experiment: HotSpot kinase assay; assay type: biochemical; conditions: read-out: % Enzyme Activity (relative to DMSO controls)
T5 construct: purchased Reaction Biology Corporation

ULK2 = molecular target: T6, ULK2 (Homo sapiens, UniProt Q8IYT8); experiment: HotSpot kinase assay; assay type: biochemical; conditions: read-out: % Enzyme Activity (relative to DMSO controls)
T6 construct: purchased Reaction Biology Corporation

CLK4 = molecular target: T7, CLK4 (Homo sapiens, UniProt Q9HAZ1); experiment: HotSpot kinase assay; assay type: biochemical; conditions: read-out: % Enzyme Activity (relative to DMSO controls)
T7 construct: purchased Reaction Biology Corporation

BRSK1 = molecular target: T8, BRSK1 (Homo sapiens, UniProt Q8TDC3); experiment: HotSpot kinase assay; assay type: biochemical; conditions: read-out: % Enzyme Activity (relative to DMSO controls)
T8 construct: purchased Reaction Biology Corporation

STK32B/YANK2 = molecular target: T9, STK32B/YANK2 (Homo sapiens, UniProt Q9NY57); experiment: HotSpot kinase assay; assay type: biochemical; conditions: read-out: % Enzyme Activity (relative to DMSO controls)
T9 construct: purchased Reaction Biology Corporation

[1] = test system: Primary vaginal epithelial cells; experiment: cell proliferation and viability, ~50% confluent; conditions: for cell proliferation and viability, odu as a percentage of the DMSO control: 120 h (Fig 1d source data)
TRKC = molecular target: T10, TRKC (Homo sapiens, UniProt Q16288); experiment: HotSpot kinase assay; assay type: biochemical; conditions: read-out: % Enzyme Activity (relative to DMSO controls)
T10 construct: purchased Reaction Biology Corporation

IRAK1 = molecular target: T11, IRAK1 (Homo sapiens, UniProt P51617); experiment: HotSpot kinase assay; assay type: biochemical; conditions: read-out: % Enzyme Activity (relative to DMSO controls)
T11 construct: purchased Reaction Biology Corporation

SIK1 = molecular target: T12, SIK1 (Homo sapiens, UniProt P57059); experiment: HotSpot kinase assay; assay type: biochemical; conditions: read-out: % Enzyme Activity (relative to DMSO controls)
T12 construct: purchased Reaction Biology Corporation

MSK2/RPS6KA4 = molecular target: T13, MSK2/RPS6KA4 (Homo sapiens, UniProt O75676); experiment: HotSpot kinase assay; assay type: biochemical; conditions: read-out: % Enzyme Activity (relative to DMSO controls)
T13 construct: purchased Reaction Biology Corporation

PHKg2 = molecular target: T14, PHKg2 (Homo sapiens, UniProt P15735); experiment: HotSpot kinase assay; assay type: biochemical; conditions: read-out: % Enzyme Activity (relative to DMSO controls)
T14 construct: purchased Reaction Biology Corporation

TNK1 = molecular target: T15, TNK1 (Homo sapiens, UniProt Q13470); experiment: HotSpot kinase assay; assay type: biochemical; conditions: read-out: % Enzyme Activity (relative to DMSO controls)
T15 construct: purchased Reaction Biology Corporation

ABL2/ARG = molecular target: T16, ABL2/ARG (Homo sapiens, UniProt P42684); experiment: HotSpot kinase assay; assay type: biochemical; conditions: read-out: % Enzyme Activity (relative to DMSO controls)
T16 construct: purchased Reaction Biology Corporation

PDK1/PDPK1 = molecular target: T17, PDK1/PDPK1 (Homo sapiens, UniProt O15530); experiment: biochemical
T17 construct: purchased Reaction Biology Corporation
T17 sequence (O15530 1-556): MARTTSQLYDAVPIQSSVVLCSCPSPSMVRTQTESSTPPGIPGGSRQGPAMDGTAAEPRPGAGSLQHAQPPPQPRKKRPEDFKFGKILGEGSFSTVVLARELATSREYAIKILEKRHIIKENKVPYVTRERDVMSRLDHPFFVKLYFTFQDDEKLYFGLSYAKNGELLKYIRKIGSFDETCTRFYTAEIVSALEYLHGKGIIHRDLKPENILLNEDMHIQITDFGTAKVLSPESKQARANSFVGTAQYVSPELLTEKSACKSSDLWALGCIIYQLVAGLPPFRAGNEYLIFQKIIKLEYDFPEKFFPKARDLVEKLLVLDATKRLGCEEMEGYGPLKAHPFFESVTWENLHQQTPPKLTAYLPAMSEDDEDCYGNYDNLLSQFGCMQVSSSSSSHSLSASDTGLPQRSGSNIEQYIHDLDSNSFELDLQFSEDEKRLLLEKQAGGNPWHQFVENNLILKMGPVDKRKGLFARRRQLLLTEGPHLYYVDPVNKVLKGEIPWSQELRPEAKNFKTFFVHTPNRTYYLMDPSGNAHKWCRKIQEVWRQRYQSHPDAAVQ

MARK1 = molecular target: T18, MARK1 (Homo sapiens, UniProt Q9P0L2); experiment: HotSpot kinase assay; assay type: biochemical; conditions: read-out: % Enzyme Activity (relative to DMSO controls)
T18 construct: purchased Reaction Biology Corporation

ERK2/MAPK1 = molecular target: T19, ERK2/MAPK1 (Homo sapiens, UniProt P28482); experiment: HotSpot kinase assay; assay type: biochemical; conditions: read-out: % Enzyme Activity (relative to DMSO controls)
T19 construct: purchased Reaction Biology Corporation

EPHA4 = molecular target: T20, EPHA4 (Homo sapiens, UniProt P54764); experiment: HotSpot kinase assay; assay type: biochemical; conditions: read-out: % Enzyme Activity (relative to DMSO controls)
T20 construct: purchased Reaction Biology Corporation

PDGFRa = molecular target: T21, PDGFRa (Homo sapiens, UniProt P16234); experiment: HotSpot kinase assay; assay type: biochemical; conditions: read-out: % Enzyme Activity (relative to DMSO controls)
T21 construct: purchased Reaction Biology Corporation

SNARK/NUAK2 = molecular target: T22, SNARK/NUAK2 (Homo sapiens, UniProt Q9H093); experiment: HotSpot kinase assay; assay type: biochemical; conditions: read-out: % Enzyme Activity (relative to DMSO controls)
T22 construct: purchased Reaction Biology Corporation

Haspin = molecular target: T23, Haspin (Homo sapiens, UniProt Q8TF76); experiment: HotSpot kinase assay; assay type: biochemical; conditions: read-out: % Enzyme Activity (relative to DMSO controls)
T23 construct: purchased Reaction Biology Corporation

STK22D/TSSK1 = molecular target: T24, STK22D/TSSK1 (Homo sapiens, UniProt Q9BXA7); experiment: HotSpot kinase assay; assay type: biochemical; conditions: read-out: % Enzyme Activity (relative to DMSO controls)
T24 construct: purchased Reaction Biology Corporation

NEK1 = molecular target: T25, NEK1 (Homo sapiens, UniProt Q96PY6); experiment: HotSpot kinase assay; assay type: biochemical; conditions: read-out: % Enzyme Activity (relative to DMSO controls)
T25 construct: purchased Reaction Biology Corporation

CK1epsilon = molecular target: T26, CK1epsilon (Homo sapiens, UniProt P49674); experiment: HotSpot kinase assay; assay type: biochemical; conditions: read-out: % Enzyme Activity (relative to DMSO controls)
T26 construct: purchased Reaction Biology Corporation

NEK4 = molecular target: T27, NEK4 (Homo sapiens, UniProt P51957); experiment: HotSpot kinase assay; assay type: biochemical; conditions: read-out: % Enzyme Activity (relative to DMSO controls)
T27 construct: purchased Reaction Biology Corporation

DCAMKL1 = molecular target: T28, DCAMKL1 (Homo sapiens, UniProt O15075); experiment: HotSpot kinase assay; assay type: biochemical; conditions: read-out: % Enzyme Activity (relative to DMSO controls)
T28 construct: purchased Reaction Biology Corporation

EPHA3 = molecular target: T29, EPHA3 (Homo sapiens, UniProt P29320); experiment: HotSpot kinase assay; assay type: biochemical; conditions: read-out: % Enzyme Activity (relative to DMSO controls)
T29 construct: purchased Reaction Biology Corporation

PAK3 = molecular target: T30, PAK3 (Homo sapiens, UniProt O75914); experiment: HotSpot kinase assay; assay type: biochemical; conditions: read-out: % Enzyme Activity (relative to DMSO controls)
T30 construct: purchased Reaction Biology Corporation

TIE2/TEK = molecular target: T31, TIE2/TEK (Homo sapiens, UniProt Q02763); experiment: HotSpot kinase assay; assay type: biochemical; conditions: read-out: % Enzyme Activity (relative to DMSO controls)
T31 construct: purchased Reaction Biology Corporation

RSK2 = molecular target: T32, RSK2 (Homo sapiens, UniProt P51812); experiment: HotSpot kinase assay; assay type: biochemical; conditions: read-out: % Enzyme Activity (relative to DMSO controls)
T32 construct: purchased Reaction Biology Corporation

CK1a1 = molecular target: T33, CK1a1 (Homo sapiens, UniProt P48729); experiment: HotSpot kinase assay; assay type: biochemical; conditions: read-out: % Enzyme Activity (relative to DMSO controls)
T33 construct: purchased Reaction Biology Corporation

CK1g3 = molecular target: T34, CK1g3 (Homo sapiens, UniProt Q9Y6M4); experiment: HotSpot kinase assay; assay type: biochemical; conditions: read-out: % Enzyme Activity (relative to DMSO controls)
T34 construct: purchased Reaction Biology Corporation

T22 sequence (Q9H093 whole entry): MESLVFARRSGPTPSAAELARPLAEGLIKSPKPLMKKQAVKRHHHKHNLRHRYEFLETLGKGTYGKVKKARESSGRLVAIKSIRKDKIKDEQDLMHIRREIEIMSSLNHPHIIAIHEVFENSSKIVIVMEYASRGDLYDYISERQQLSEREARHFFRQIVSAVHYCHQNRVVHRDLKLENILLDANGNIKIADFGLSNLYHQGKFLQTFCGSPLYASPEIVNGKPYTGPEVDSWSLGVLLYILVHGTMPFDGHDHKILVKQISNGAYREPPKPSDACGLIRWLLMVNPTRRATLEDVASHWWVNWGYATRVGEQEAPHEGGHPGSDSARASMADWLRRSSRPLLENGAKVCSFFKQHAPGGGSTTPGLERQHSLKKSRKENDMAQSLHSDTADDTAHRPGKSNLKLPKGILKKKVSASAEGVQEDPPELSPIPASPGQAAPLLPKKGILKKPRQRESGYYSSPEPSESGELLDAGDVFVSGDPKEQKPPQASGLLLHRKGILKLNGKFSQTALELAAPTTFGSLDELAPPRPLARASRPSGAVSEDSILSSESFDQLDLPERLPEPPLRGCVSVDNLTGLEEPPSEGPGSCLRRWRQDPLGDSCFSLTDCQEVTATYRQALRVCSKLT
T25 sequence (Q96PY6 whole entry): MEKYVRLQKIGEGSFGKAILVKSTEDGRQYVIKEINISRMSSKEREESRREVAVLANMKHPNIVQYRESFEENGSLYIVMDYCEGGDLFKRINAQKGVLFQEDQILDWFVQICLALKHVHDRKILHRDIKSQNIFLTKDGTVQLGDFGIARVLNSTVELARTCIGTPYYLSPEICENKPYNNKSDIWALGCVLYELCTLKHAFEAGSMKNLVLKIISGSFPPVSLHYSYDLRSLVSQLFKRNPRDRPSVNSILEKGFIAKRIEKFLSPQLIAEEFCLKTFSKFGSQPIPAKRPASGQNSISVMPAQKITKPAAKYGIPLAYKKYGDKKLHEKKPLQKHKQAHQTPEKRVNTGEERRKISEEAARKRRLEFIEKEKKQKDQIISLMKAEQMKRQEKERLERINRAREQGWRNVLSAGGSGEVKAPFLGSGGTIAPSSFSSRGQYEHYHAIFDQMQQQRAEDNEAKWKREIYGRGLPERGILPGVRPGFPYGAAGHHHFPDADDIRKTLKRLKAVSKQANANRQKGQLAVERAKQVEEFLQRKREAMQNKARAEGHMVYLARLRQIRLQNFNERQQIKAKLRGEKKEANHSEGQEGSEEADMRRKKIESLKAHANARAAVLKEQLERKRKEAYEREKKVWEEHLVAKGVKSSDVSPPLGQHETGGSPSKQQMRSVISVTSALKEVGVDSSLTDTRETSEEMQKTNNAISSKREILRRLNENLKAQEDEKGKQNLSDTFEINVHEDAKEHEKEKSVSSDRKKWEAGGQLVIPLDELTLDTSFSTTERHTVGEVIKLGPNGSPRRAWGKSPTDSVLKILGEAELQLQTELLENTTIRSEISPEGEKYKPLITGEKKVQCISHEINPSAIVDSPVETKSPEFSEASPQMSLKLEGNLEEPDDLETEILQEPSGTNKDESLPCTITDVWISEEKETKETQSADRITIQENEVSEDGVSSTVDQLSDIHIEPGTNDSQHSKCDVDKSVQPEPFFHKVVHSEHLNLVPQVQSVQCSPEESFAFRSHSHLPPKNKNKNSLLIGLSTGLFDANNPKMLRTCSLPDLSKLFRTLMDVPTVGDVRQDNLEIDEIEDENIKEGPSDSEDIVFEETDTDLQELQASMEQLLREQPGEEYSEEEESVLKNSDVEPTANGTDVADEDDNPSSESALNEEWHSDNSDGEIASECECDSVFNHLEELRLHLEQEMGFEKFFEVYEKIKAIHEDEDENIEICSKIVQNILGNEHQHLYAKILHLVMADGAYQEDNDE
T9 sequence (Q9NY57 whole entry): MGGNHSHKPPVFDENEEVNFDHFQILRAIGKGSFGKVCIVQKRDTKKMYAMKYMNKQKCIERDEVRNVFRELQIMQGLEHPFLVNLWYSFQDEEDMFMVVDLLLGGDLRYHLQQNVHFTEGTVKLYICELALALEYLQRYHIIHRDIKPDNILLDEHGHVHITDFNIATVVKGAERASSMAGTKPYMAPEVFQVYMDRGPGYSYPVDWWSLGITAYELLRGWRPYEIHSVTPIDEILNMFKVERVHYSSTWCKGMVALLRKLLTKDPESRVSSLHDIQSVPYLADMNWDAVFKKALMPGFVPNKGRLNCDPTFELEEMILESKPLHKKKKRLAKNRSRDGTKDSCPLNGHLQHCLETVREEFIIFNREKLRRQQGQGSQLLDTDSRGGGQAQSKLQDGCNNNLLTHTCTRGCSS
T20 sequence (P54764 20-986): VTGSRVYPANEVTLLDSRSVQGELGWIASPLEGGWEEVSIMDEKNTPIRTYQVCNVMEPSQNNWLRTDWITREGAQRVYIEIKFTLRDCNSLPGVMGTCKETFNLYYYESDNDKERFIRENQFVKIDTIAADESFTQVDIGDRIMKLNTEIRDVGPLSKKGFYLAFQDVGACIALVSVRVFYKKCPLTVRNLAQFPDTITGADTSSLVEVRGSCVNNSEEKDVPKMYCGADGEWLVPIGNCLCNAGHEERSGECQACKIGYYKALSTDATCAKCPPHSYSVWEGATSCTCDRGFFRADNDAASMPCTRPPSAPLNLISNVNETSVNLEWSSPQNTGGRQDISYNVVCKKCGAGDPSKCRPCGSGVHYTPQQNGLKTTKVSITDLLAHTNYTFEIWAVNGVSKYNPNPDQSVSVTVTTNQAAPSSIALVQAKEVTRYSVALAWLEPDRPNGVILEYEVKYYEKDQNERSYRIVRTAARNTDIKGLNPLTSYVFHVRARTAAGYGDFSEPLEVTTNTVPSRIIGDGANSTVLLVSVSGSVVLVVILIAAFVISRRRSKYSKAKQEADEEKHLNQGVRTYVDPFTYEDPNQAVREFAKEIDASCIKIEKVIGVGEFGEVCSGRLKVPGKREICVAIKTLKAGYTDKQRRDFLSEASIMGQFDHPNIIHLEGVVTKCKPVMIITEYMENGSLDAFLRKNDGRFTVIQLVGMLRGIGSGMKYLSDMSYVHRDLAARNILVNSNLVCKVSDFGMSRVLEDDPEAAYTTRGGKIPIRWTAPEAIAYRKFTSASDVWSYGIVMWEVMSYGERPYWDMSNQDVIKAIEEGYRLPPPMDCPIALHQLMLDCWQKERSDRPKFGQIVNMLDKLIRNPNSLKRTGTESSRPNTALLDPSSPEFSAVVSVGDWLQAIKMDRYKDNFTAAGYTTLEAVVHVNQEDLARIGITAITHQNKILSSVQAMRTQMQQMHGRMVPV
T7 sequence (Q9HAZ1 whole entry): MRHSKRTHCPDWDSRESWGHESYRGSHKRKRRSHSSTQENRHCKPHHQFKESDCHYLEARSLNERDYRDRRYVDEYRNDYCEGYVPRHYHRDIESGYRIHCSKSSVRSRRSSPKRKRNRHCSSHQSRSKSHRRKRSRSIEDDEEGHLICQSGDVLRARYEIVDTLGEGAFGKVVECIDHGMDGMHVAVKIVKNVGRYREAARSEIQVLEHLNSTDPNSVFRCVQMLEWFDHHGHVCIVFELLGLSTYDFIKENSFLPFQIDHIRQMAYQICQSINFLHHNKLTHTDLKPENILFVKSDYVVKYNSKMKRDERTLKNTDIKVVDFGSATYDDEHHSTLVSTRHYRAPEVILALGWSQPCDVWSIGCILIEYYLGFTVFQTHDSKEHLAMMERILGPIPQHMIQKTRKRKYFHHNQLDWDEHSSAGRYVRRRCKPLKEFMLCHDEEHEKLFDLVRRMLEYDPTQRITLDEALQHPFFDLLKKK
T13 sequence (O75676 whole entry): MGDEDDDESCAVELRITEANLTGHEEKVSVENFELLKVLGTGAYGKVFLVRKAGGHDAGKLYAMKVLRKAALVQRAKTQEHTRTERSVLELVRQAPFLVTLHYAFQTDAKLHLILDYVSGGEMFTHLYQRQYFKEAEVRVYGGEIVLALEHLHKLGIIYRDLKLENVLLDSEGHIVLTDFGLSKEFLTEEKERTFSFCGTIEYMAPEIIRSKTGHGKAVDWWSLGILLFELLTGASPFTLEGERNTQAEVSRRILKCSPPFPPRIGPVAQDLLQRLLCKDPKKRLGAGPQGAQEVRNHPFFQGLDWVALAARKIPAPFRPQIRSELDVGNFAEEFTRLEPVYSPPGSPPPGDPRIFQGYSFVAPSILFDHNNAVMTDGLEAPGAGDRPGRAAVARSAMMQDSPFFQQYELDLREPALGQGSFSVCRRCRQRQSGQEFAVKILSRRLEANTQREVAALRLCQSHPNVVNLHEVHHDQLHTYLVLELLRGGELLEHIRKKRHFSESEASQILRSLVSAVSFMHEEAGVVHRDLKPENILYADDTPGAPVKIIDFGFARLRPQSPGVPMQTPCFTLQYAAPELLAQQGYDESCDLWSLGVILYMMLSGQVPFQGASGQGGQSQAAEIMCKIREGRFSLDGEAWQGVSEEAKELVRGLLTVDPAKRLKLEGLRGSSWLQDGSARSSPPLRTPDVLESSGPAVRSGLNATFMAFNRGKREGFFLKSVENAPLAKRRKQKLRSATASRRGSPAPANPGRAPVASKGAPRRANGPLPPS
T33 sequence (P48729 whole entry): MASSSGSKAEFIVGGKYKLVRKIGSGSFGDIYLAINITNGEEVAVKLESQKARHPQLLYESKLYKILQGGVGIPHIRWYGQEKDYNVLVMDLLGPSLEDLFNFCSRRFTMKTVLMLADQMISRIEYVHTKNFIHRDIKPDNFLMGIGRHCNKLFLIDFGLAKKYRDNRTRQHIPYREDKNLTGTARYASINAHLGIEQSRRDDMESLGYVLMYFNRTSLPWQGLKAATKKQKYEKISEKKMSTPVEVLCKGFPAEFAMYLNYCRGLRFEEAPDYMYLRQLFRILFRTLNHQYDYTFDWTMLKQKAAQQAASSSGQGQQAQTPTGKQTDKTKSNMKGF

## CO[C@@H]1[C@H](N(C)C(=O)CCC(=O)NCc2cn(CCCS(=O)(=O)O)nn2)C[C@H]2O[C@]1(C)n1c3ccccc3c3c4c(c5c6ccccc6n2c5c31)C(=O)NC4 [CIMSS]
PKCepsilon
  remaining activity at 10 µM: 1.11%
FLT3
  remaining activity at 10 µM: 4.55%
STK38/NDR1
  remaining activity at 10 µM: 8.29%
SBK1
  remaining activity at 10 µM: 78.8%
ALK5/TGFBR1
  remaining activity at 10 µM: 86.6%
ULK2
  remaining activity at 10 µM: 13.6%
CLK4
  remaining activity at 10 µM: 10.4%
BRSK1
  remaining activity at 10 µM: 1.55%
STK32B/YANK2
  remaining activity at 10 µM: 0.96%
[1]; 10 μM
  cell proliferation and viability, odu as a percentage of the DMSO control: 99.5%
[1]; 50 μM
  cell proliferation and viability, odu as a percentage of the DMSO control: 91.8%
[1]; 10 or 50 μM, up to 120 h
  cytotoxicity: little or no cytotoxicity
TRKC
  remaining activity at 10 µM: 0.34%
IRAK1
  remaining activity at 10 µM: 3.57%
SIK1
  remaining activity at 10 µM: 1%
MSK2/RPS6KA4
  remaining activity at 10 µM: 2.11%
PHKg2
  remaining activity at 10 µM: 18.4%
TNK1
  remaining activity at 10 µM: 3.88%
ABL2/ARG
  remaining activity at 10 µM: 4.07%
PDK1/PDPK1; Supplementary Table 1, PDPK1, read-out: IC50 (Molar concentration)
  IC50: 0.278 nM
PDK1/PDPK1; read-out: % Enzyme Activity (relative to DMSO controls), 10µM
  remaining activity at 10 µM: 4.24%
PDK1/PDPK1; read-out: inhibition of PDPK1
  inhibition at 10 µM: > 75%
MARK1
  remaining activity at 10 µM: 1.18%
ERK2/MAPK1
  remaining activity at 10 µM: 75.3%
EPHA4
  remaining activity at 10 µM: 30.5%
PDGFRa
  remaining activity at 10 µM: 6.05%
SNARK/NUAK2
  remaining activity at 10 µM: 2.16%
Haspin
  remaining activity at 10 µM: 49.5%
STK22D/TSSK1
  remaining activity at 10 µM: 2.71%
NEK1
  remaining activity at 10 µM: 5.88%
CK1epsilon
  remaining activity at 10 µM: 38.8%
NEK4
  remaining activity at 10 µM: 6.24%
DCAMKL1
  remaining activity at 10 µM: 83.7%
EPHA3
  remaining activity at 10 µM: 37.9%
PAK3
  remaining activity at 10 µM: 6.48%
TIE2/TEK
  remaining activity at 10 µM: 7.56%
RSK2
  remaining activity at 10 µM: 1.69%
CK1a1
  remaining activity at 10 µM: 98.3%
CK1g3
  remaining activity at 10 µM: 97.2%
